Legend:
ST2 cells = experiment: Osteogenesis of multipotential ST2 cells, Alizarin Red-S staining for mineralization; type: cell-based; details: 3 μM on days 0 and 2 vs DMSO control; Alizarin Red-S stain on day 10; FIG. 1B
Experimental: FIG. 1B. Multipotential ST2 cells were induced to undergo osteogenesis as described (Hankenson and Bornstein 2002). On days 0 and 2, cells were treated with DMSO (control) or 3 μM CHIR99021 6-[(2-{[4-(2,4-dichlorophenyl)-5-(4-methylimidazol-2-yl)pyrimidin-2-yl]amino}ethyl)amino]pyridine-3-carbonitrile (Chiron Corporation, Emeryville, Calif.). On day 10, cells were stained with Alizarin Red-S for mineralization.

3T3-L1 preadipocyes = details: cited from earlier work

SMILES: Cc1c[nH]c(-c2cnc(NCCNc3ccc(C#N)cn3)nc2-c2ccc(Cl)cc2Cl)n1 [CHIR99021, 6-[(2-{[4-(2,4-dichlorophenyl)-5-(4-methylimidazol-2-yl)pyrimidin-2-yl]amino}ethyl)amino]pyridine-3-carbonitrile]
- osteoblastogenesis and mineralization of bipotential ST2 cells (ST2 cells): increases osteoblastogenesis and mineralization
- Wnt signaling in vitro (3T3-L1 preadipocyes): mimic Wnt signaling
- adipocyte conversion (3T3-L1 preadipocyes; in vitro): blocking adipocyte conversion

From patent US20090074886A1, “GSK-3 INHIBITORS” (Novartis Vaccines and Diagnostics Inc., priority 2003, published 2009)
